Data on four compounds can be found in PMC2579677 (British Journal of Cancer, 2008).

In data set [1] the test system is MCF-7dox40 xenograft tumours. The data set is described as follows: Paclitaxel-resistant MCF-7dox40 xenograft tumour growth inhibition. Format: in vivo, MF-1 nu/nu mice. The settings on record: 28 days.
Data set [2] relates to MCF-7wt xenograft tumours. Put plainly: MCF-7wt xenograft tumour growth inhibition. Format: in vivo, MF-1 nu/nu mice. The settings on record: 28 days, compared with vehicle-only.
The subject of data set [3] is bFGF-stimulated angiogenesis in Matrigel plugs. Put plainly: In vivo angiogenesis assay (bFGF-supplemented Matrigel plug, FITC-dextran). Also on record: species or system C57BL/6J mice. The settings on record: for reduction of level of angiogenesis: 10 mg kg^−1 orally daily for four days, compared with bFGF-only. The procedure: The antiangiogenic potential of STX243 was assessed using a modified Matrigel plug assay as described earlier ([Passaniti et al, 1992]; [Prewett et al, 1999]; [Chander et al, 2007]). The female C57BL/6J mice used in this study were obtained from Harlan (Bicester). The mice were anaesthetised, placed on a heated pad (37°C) and 0.5 ml of ice-cold Matrigel supplemented with 500 ng of basic fibroblast growth factor (bFGF) was injected subcutaneously into the flanks of each mouse. Control mice received Matrigel without bFGF. The mice were subsequently weighed before returning the mice to their isolator. After 24 h of Matrigel injection, the mice were placed into the following treatment groups: control, bFGF-only, bFGF plus STX140 (10 mg kg^−1, orally) and bFGF plus STX243 (10, 20 or 40 mg kg^−1, orally). Control and bFGF-only animals were dosed orally with vehicle (10% THF, 90% PG). The animals were dosed every day for four days with five animals per treatment group. Quantification of the blood vessels within the Matrigel plugs was facilitated through the intravenous injection of 100 μl of 0.25 mg ml^−1 FITC-dextran (250 000 molecular weight) seven days after the Matrigel injection. FITC-dextran injection allows for visualisation of the blood vessels that has been recently formed in the matrigel plugs. The animals were killed 20 min after the injection of the FITC-dextran. The mice were subsequently weighed and the Matrigel plugs were removed. The Matrigel plugs were photographed and subsequently dissolved in 1 ml Dispase reagent for 16 h at 37°C. The resulting mixture was centrifuged at 15 700 g (20°C) for 30 s. The fluorescence of the supernatant was measured using a FLUOstar OPTIMA fluorimeter (BMG Labtech Ltd., Aylesbury, Bucks, UK). The excitation and emission wavelengths used were 480 and 520 nm, respectively. The fluorescence of the samples was quantitated using a standard curve of FITC-dextran (0.4–25 μg ml^−1).

Details of data set [4]: method as in Foster et al, 2008. The settings on record: single oral administration; ref Foster et al, 2008; cited from earlier work.
In a further data set the test system is HUVECs. Put plainly: In vitro angiogenesis kit: VEGF-stimulated vessel formation in HUVEC/fibroblast coculture. Format: cell-based, human. The settings on record: VEGF 2 ng ml^−1 stimulated, day 11. The procedure: The effects of the compounds on in vitro vessel formation were assessed using an angiogenesis kit (TCS Cellworks, Claydon, UK). For this assay, HUVECs (obtained from TCS Cellworks) were cultured in a 24-well plate within a matrix of human diploid fibroblasts of dermal origin in an optimised medium (TCS Cellworks) supplemented with 2 ng ml^−1 vascular endothelial growth factor (VEGF). The cocultured cells were incubated throughout the experiment at 37°C under 5% CO2 in a humidified incubator. On day 1, the culture medium was removed and replaced with medium containing the compounds under investigation. The vehicle used for the dilution of compound was tetrahydrofuran (THF). The final concentration of THF in the medium was 0.001 (100 nM dose) to 0.00025% (25 nM dose). On days 4, 7 and 9, the medium was replaced with fresh medium containing the compounds. Each compound was tested in triplicate. On day 11, the cells were washed (phosphate-buffered saline) and 70% ethanol (1 ml) was added to each well for 30 min to fix the cells. After fixation, the cells were washed with blocking buffer (1 ml, phosphate-buffered saline+1% bovine serum albumin) and stained for CD31 according to the manufacturer's instructions (TCS Cellworks).
The extent of vessel formation was then quantified using a variation of an earlier described technique ([Newman et al, 2004]). Briefly, using a high-resolution transmissive scanner (ScanMaker 9800, Microtek, Willich, Germany), each well was scanned and saved as a tagged image format (TIF) file in Photoshop (Adobe, San Jose, CA, USA). The image was then converted to a black and white image using the photocopy filter in Photoshop ( × 2, 10 detail and 25 darkness) and saved as an uncompressed TIF file. The files were transferred to the AngioSys software (TCS Cellworks), all background and non-tubule-like structures were removed using erode ( × 1) and clean (100 pixels) functions, and the number of pixels representing vessels was counted. This technique was validated (data not shown) against the quantification techniques as described earlier ([Newman et al, 2004]).

The next data set relates to range of cell lines. The settings on record: 2003, 2005, cited from earlier work; for difference in antiproliferative activity relative to 2-MeOE2: some investigations, ref Day et al, Wood et al, 2004, Leese et al.
Data set [5] concerns MDA-MB-231 xenograft tumours. The data set is described as follows: MDA-MB-231 xenograft tumour growth inhibition. The settings on record: 21 days.
Data set [6] is described as follows: Pharmacokinetics of STX243 in plasma (HPLC). Format: in vivo, female Wistar rats. The settings on record: for clearance / MRT / Vd / half-life / Cmax: female, Wistar; for clearance / MRT / Vd / half-life: rat, plasma; for clearance: read-out: Cl (total body clearance) (converted); for MRT: read-out: MRT (mean residence time); for Vd: read-out: VD (volume of distribution); for half-life: read-out: t1/2β (elimination half-life) (converted).

Data set [7] has as its system human umbilical vein endothelial cell (HUVEC). Also on record: method as in Newman et al, 2004. The settings on record: ref Newman et al, 2004; cited from earlier work.
Data set [8] has as its system MCF-7dox40 xenograft tumours. Also on record: method as in Newman et al, 2008. The settings on record: ref Newman et al, 2008; cited from earlier work.
The conditions of data set [9]: cited from earlier work.
In data set [10] the test system is bFGF-stimulated angiogenesis in Matrigel plugs. On the set-up: method as in Chander et al, 2007. The settings on record: ref Chander et al, 2007, cited from earlier work.
Setting [11] is: 40 mg kg^−1 orally daily, compared with vehicle-only.

Several values for one entry are separate records, joined by “and”; a condition that tells them apart may be missing. Equal entries are not always repeated. Where two headings read alike, the source gives them in different places.

Take `CC(=O)O[C@H]1C(=O)[C@@]2(C)[C@H]([C@H](OC(=O)c3ccccc3)[C@]3(O)C[C@H](OC(=O)[C@H](O)[C@@H](NC(=O)c4ccccc4)c4ccccc4)C(C)=C1C3(C)C)[C@]1(OC(C)=O)CO[C@@H]1C[C@@H]2O` [paclitaxel, reference compound]: the tumour growth inhibition result in data set [1] (15 mg kg^−1 intravenous weekly) is “only STX243 was capable of significantly inhibiting the growth”; in [2] (15 mg kg^−1 intravenous weekly), 87±6%.

As usually defined, the clearance is the volume of plasma or blood freed of the substance per unit of time. Broadly, the MRT is a mean duration of stay, worked out from the concentration-time curve. The Vd is a proportionality between amount in the body and measured concentration, not a real space. As usually defined, the Cmax is the peak of the concentration-time curve. Regarding `CCc1cc2c(cc1OS(N)(=O)=O)CCC1C2CC[C@@]2(C)C1CC[C@@H]2OS(N)(=O)=O` (stereo partly drawn) [STX243, 2-ethyloestradiol-3,17-O,O-bis-sulphamate], in data set [3], the “reduction of level of angiogenesis” value was 50% and 50±6%. Further, the “growth of new blood vessels in Matrigel plugs” value in data set [3] (all doses investigated (10, 20 or 40 mg kg^−1 orally), P<0.001 vs bFGF-only) was “significantly inhibited”. In addition, the maximum-tolerated dose in data set [4] is 300 mg/kg. The vessel formation entry in the data set with HUVECs (25 nM) is reported as “only a small inhibition”; in the data set with HUVECs (50 nM), “significant inhibition of vessel formation”. Moreover, the “vessel (tubule) formation” value in the data set with HUVECs (100 nM) was “completely blocked all tubule formation”. The tumour growth inhibition is 74±4% in data set [1] (setting [11]); 72% and 72±13% in data set [5] (setting [11]); 87±5% in [2] (40 mg kg^−1 orally daily). Moreover, the “potency at inhibiting cell proliferation relative to STX140” value in the data set with range of cell lines (range of cell lines, ref Suzuki et al, Raobaikady et al) is “equipotent to STX140”. Moreover, in the data set on range of cell lines, the “difference in antiproliferative activity relative to 2-MeOE2” value is recorded as 10 fold. The AUC in [6] (Intravenous 10 mg kg^−1) turned out to be 42 hμg ml^−1; in data set [6] (Intravenous 40 mg kg^−1), 126 hμg ml^−1; in data set [6] (Oral 10 mg kg^−1), 13 hμg ml^−1; in data set [6] (Oral 40 mg kg^−1), 23 hμg ml^−1. The AUMC is recorded as 267 h^2μg ml^−1 in data set [6] (Intravenous 10 mg kg^−1), 558 h^2μg ml^−1 in data set [6] (Intravenous 40 mg kg^−1), 219 h^2μg ml^−1 in data set [6] (Oral 10 mg kg^−1) and 157 h^2μg ml^−1 in [6] (Oral 40 mg kg^−1). Moreover, the “Bioavailability (% F)” value is 31 % F and 30.7 % F in [6] (Oral 10 mg kg^−1); 18 % F in [6] (Oral 40 mg kg^−1). Also, the “time of highest plasma concentration” value in [6] (Oral 10 mg kg^−1) is listed as 4 h; in data set [6] (Oral 40 mg kg^−1) it was 8 h. Also, the results for the clearance in data set [6] (Intravenous 10 mg kg^−1) and in data set [6] (Intravenous 40 mg kg^−1) were 3.92 mL/min/kg and 5.3 mL/min/kg, respectively. In addition, the MRT in data set [6] (Intravenous 10 mg kg^−1) was 6.28 h; in [6] (Intravenous 40 mg kg^−1), 4.44 h; in data set [6] (Oral 10 mg kg^−1) it was 16.8 h; in data set [6] (Oral 40 mg kg^−1), 6.93 h. The Vd in data set [6] (Intravenous 10 mg kg^−1) turned out to be 1.48 L/kg; in [6] (Intravenous 40 mg kg^−1), 1.41 L/kg. For the same compound, the half-life in data set [6] (Intravenous 10 mg kg^−1) was 4.78 h; in data set [6] (Intravenous 40 mg kg^−1) it was 3.18 h; in data set [6] (Oral 10 mg kg^−1), 11.4 h; in [6] (Oral 40 mg kg^−1), 1.88 h. Also, the Cmax in [6] (Intravenous 10 mg kg^−1, rat plasma) stood at 13100 ng/mL; in [6] (Intravenous 40 mg kg^−1, rat plasma), 44800 ng/mL; in data set [6] (Oral 10 mg kg^−1, rat plasma) it was 640 ng/mL; in data set [6] (Oral 40 mg kg^−1, rat plasma) it was 1760 ng/mL. In addition, the “metabolism (to putative metabolite STX1813) in plasma” value in data set [6] (intravenous or oral, 10 or 40 mg kg^−1, HPLC) is “no significant metabolism”.

On to `COc1cc2c(cc1OS(N)(=O)=O)CCC1C2CC[C@@]2(C)C1CC[C@@H]2OS(N)(=O)=O` (stereo partly drawn) [STX140, 2-MeOE2-3,17-O,O-bis-sulphamate], for which, in data set [7], the “effectiveness at inhibiting HUVEC proliferation relative to 2-MeOE2” value was 60 fold. For the same compound, the “reduction of level of angiogenesis” value in [3] is 72% and 72±5%. The maximum-tolerated dose in data set [4] is 150 mg/kg. In data set [8], the “inhibition of growth of MCF-7dox40 tumours” value is listed as “capable of inhibiting the growth of MCF-7dox40 tumours”. Also, the “maximum concentration in plasma” value is 6.6 µg/mL in [9] (rat, in vivo, iv) and 3.9 µg/mL in data set [9] (rat, in vivo, po). The oral bioavailability in [9] (rat, in vivo, po, 10 mg/kg) is listed as 85%. Moreover, the “time of peak plasma concentration” value in data set [9] (rat, in vivo, po) was 3 h. Further, the “difference in antiproliferative activity relative to 2-MeOE2” value with range of cell lines is recorded as 10 fold. Moreover, the tumour growth inhibition in data set [5] (20 mg kg^−1 orally daily, compared with vehicle-only) was 63% and 63±7%.

As for `COc1cc2c(cc1O)CC[C@@H]1[C@@H]2CC[C@]2(C)[C@@H](O)CC[C@@H]12` [2-MeOE2, 2-methoxyoestradiol, reference compound], the “angiogenesis inhibition in Matrigel plugs” value in data set [10] (10 mg kg^−1 dose) is reported as “no significant inhibition”; in data set [10] (50 mg kg^−1 orally), “Angiogenesis inhibition was only observed”. Besides, the “plasma concentration 1 h after intravenous dosing” value in data set [9] (10 mg kg^−1 intravenous, HPLC, ref Ireson et al, 2004) is reported as “below the LOD”. The tumour growth inhibition result in data set [5] (setting [11]) and in [5] (75 mg kg^−1 orally daily) was “No significant tumour inhibition” throughout.
